Reference: US7662778B2, “Histone deacetylase inhibitor and process for producing the same” (Riken, priority 2003, dated 2010)
Read-outs that look alike come from different tables or passages of the source. Each block holds one molecule with its values, some of them ahead of it. Where a SMILES comes first, the peptide text is derived from it. [ ]: non-standard residue; d: D form. The star is where a group is joined. hLys(Nζ-OH,Nζ-For) = N[C@@H](CCCCCN(O)C=O)C(=O)O; Asu = N[C@@H](CCCCCC(=O)O)C(=O)O; X2 = Nc1ccccc1O*

What was measured:
[1] = amide bond, 12-membered ring, DMF
[2] = target: T1, human HDAC4 (Homo sapiens, UniProt P56524); experiment: HDAC inhibitory activity in vitro (coumarin-labeled acetylated histone peptide), HDAC4; format: biochemical
T1 construct: FLAG; made in house; host or cells: 293T cells, transient transfection; anti-FLAG immunoprecipitation and FLAG peptide elution

[3] = target: T2, human HDAC1 (Homo sapiens, UniProt Q13547); experiment: HDAC inhibitory activity in vitro (coumarin-labeled acetylated histone peptide), HDAC1; format: biochemical
T2 construct: FLAG; made in house; host or cells: 293T cells, transient transfection; anti-FLAG immunoprecipitation and FLAG peptide elution

[4] = target: T3, mouse HDAC6 (Mus musculus, UniProt Q9Z2V5); experiment: HDAC inhibitory activity in vitro (coumarin-labeled acetylated histone peptide), HDAC6; format: biochemical
T3 construct: HA; made in house; host or cells: 293T cells, transient transfection; anti-HA immunoprecipitation and HA peptide elution
T3 sequence (Q9Z2V5 1-1149): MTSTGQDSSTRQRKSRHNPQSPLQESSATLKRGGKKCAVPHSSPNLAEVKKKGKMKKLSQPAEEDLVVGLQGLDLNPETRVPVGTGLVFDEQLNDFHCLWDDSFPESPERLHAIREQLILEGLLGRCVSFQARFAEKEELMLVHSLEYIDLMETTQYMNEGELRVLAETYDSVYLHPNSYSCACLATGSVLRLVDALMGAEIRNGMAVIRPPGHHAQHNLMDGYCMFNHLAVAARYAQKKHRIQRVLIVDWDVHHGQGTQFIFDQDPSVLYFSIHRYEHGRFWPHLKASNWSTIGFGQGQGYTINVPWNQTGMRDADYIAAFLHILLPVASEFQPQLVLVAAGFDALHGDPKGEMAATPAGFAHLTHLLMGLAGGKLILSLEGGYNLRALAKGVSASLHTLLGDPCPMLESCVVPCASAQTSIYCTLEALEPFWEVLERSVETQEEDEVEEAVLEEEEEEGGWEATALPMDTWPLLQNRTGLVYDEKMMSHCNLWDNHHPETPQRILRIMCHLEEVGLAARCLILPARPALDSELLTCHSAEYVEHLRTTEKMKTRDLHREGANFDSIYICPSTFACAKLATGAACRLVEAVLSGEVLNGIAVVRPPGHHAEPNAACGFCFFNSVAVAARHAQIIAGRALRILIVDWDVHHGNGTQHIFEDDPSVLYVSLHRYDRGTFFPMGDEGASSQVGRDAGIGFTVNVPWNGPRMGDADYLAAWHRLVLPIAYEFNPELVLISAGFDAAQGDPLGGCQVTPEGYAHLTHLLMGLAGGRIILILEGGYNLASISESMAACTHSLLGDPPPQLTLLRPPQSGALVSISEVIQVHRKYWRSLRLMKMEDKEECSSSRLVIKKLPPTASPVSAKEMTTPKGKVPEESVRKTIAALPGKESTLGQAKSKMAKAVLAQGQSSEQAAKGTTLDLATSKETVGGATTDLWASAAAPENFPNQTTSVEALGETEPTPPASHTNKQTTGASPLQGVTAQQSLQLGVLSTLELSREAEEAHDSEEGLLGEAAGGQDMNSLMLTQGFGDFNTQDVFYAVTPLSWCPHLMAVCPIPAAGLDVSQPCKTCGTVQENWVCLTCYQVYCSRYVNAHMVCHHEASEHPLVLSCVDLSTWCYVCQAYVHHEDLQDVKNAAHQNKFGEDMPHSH

[5] = system: human wild-type p21 promoter; experiment: p21 promoter-inducing activity (luciferase) in MFLL-9 cells; format: cell-based
Description: The HDAC inhibitory activity in vivo was measured using p21 promoter-inducing activity as an index, as shown below. The MFLL-9 cells employed for the experiments stably maintained fusion genes of human wild-type p21 promoter and luciferase (Dr. B. Vogelstaein). Using phenol red-free DMEM medium comprising 10% FBS, cultivation was carried out in a steam-saturated incubator at 37° C. with 5% carbon dioxide. The MFLL-9 cells were plated at a density of 85,000 cells/well on a 96-well microtiter plate, each in 99 μl of the above-mentioned medium. These were then cultivated for six hours. One μl of test compound solution was added to each well, which was then cultured for another 18 hours.
The intensity of luminescence caused by the product of the enzyme reaction for intracellular luciferase expression was measured using Luc Lite (Packard BioScience Company).
HDAC inhibitory activity in an in vivo system was measured using p21 promoter induction as index. The experimental method followed that of Example 11.

[6] = Table 1, 37° C., 30 minutes, read-out: IC50 (μM) HDAC4
[7] = Table 1, 37° C., 30 minutes, read-out: IC50 (μM) HDAC1
[8] = Table 1, 37° C., 30 minutes, read-out: IC50 (μM) HDAC6
[9] = Table 1, MFLL-9 cells, 18 hours, concentration corresponding to 50% of the maximum active value for TSA

T2 sequence (Q13547 whole entry): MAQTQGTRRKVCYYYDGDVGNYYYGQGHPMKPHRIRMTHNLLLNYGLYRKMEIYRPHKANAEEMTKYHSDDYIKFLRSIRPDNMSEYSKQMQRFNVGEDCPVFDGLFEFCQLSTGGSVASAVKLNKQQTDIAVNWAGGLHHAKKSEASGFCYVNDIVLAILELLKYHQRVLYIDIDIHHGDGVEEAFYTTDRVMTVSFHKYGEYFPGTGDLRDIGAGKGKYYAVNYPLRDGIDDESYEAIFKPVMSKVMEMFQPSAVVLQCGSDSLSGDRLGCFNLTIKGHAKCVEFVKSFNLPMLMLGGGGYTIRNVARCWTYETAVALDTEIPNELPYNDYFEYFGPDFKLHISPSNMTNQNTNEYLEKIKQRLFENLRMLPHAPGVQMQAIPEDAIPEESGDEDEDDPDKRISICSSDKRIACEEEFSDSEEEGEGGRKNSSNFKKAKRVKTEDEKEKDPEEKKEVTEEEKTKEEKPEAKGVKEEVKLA
T1 sequence (P56524 whole entry): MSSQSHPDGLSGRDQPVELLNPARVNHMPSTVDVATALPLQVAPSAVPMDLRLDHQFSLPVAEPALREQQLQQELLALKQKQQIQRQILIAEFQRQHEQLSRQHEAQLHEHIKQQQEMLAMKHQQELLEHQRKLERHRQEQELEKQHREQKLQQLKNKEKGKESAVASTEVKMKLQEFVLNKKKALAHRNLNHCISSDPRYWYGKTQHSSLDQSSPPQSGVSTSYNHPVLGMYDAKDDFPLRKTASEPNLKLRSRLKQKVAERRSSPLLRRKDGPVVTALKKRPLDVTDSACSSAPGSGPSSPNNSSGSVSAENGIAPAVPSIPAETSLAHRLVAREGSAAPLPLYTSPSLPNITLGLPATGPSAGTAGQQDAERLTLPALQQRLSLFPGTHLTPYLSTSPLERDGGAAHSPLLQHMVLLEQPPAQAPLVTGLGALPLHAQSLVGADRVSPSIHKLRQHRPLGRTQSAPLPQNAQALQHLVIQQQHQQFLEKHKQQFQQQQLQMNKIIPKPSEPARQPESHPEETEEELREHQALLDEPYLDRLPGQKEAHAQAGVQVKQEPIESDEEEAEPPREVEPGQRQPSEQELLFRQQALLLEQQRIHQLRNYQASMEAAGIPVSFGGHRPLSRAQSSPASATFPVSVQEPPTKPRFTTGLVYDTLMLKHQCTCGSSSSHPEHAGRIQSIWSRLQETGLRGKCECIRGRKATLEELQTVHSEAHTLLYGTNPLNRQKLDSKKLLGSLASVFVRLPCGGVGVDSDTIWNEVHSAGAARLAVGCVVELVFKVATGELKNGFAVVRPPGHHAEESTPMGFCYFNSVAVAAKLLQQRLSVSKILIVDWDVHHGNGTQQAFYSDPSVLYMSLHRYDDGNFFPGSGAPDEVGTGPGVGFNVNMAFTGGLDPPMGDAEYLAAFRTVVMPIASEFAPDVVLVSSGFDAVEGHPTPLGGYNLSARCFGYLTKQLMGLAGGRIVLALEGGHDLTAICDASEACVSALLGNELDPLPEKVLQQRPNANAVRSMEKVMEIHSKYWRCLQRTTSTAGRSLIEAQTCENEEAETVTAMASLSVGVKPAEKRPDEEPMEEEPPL

Molecule: CC[C@H](C)[C@@H]1NC(=O)[C@@H](Cc2ccc(OC)cc2)NC(=O)[C@H](CCCCCCN(C=O)OCc2ccccc2)NC(=O)C2CCCCN2C1=O (mixture of isomers) [Cyclo(-L-A2oc(For, OBzl)-D-Tyr(Me)-L-Ile-DL-Pip-)]
ring closure, isolated yield ([1]; from H-dTyr(Me)-Ile-DL-Pip-A2oc(For,OBzl)-OH, HATU/DIEA, 1.6 mM, 25.0 °C): 21%

Molecule: CC[C@H](C)[C@@H]1NC(=O)[C@@H](Cc2ccc(OC)cc2)NC(=O)[C@H](CCCCCN(C=O)OCc2ccccc2)NC(=O)[C@@H]2CCCCN2C1=O [cyclo(-L-Hly(For, OBzl)-D-Tyr(Me)-L-Ile-L-Pip-)]
ring closure, isolated yield ([1]; from H-dTyr(Me)-Ile-Pip-Hly(For,OBzl)-OH?, HATU/DIEA, 0.39 mM, 25.0 °C): 28%

Molecule: CC[C@H](C)[C@@H]1NC(=O)[C@@H](Cc2ccc(OC)cc2)NC(=O)[C@H](CCCCOn2nnc3cccnc32)NC(=O)[C@H]2CCCN2C1=O [cyclo(-L-Ab6-D-Tyr(Me)-L-Ile-D-Pro-)]
ring closure, isolated yield ([1]; from H-dTyr(Me)-Ile-dPro-Ab6-OH, HBTU/HOBt/DIEA, 5.4 mM, 2 steps): 32%

Molecule: cyclo(-L-Aph-D-Tyr(Me)-L-Ile-D-Pro-)
ring closure, isolated yield ([1]; HATU/DIEA, 2.7 mM, 25.0 °C, 2 steps): 11%

Molecule: Cyclo(-L-Asu(OBzl)-D-Tyr(Me)-L-Ile-D-Pro-) [COOBzI]
EC50 [5, 9]: > 100 µM

Next, values leading:

IC50 [2, 6]: 25.2 µM
IC50 [3, 7]: 33.9 µM
IC50 [4, 8]: 14.3 µM
Molecule: CC[C@H](C)[C@@H]1NC(=O)[C@@H](Cc2ccc(OC)cc2)NC(=O)[C@H](CCCCN(O)C=O)NC(=O)[C@H]2CCCCN2C1=O [N(OH)COH Cyclo(X-y(Me)-I-pip), n = 4]

IC50 [2, 6]: 0.07 µM
IC50 [3, 7]: 0.12 µM
EC50 [5, 9]: 3.95 µM
IC50 [4, 8]: > 500 µM
Molecule: CC[C@H](C)[C@@H]1NC(=O)[C@@H](Cc2ccc(OC)cc2)NC(=O)[C@H](CCCCCC(=O)OC)NC(=O)[C@H]2CCCN2C1=O [COOMe, cyclo(-L-Asu(OMe)-D-Tyr(Me)-L-Ile-D-Pro-)] (cyclo([Asu](OMe)[dY](Me)I[dP]))

IC50 [2, 6]: 17.5 µM
IC50 [3, 7]: 23.9 µM
IC50 [4, 8]: 8.19 µM
Molecule: CC[C@H](C)[C@@H]1NC(=O)[C@@H](Cc2ccc(OC)cc2)NC(=O)[C@H](CCCCN(O)C=O)NC(=O)[C@@H]2CCCCN2C1=O [N(OH)COH Cyclo(X-y(Me)-I-Pip), n = 4]

IC50 [2, 6]: 18.9 µM
IC50 [3, 7]: 13.5 µM
IC50 [4, 8]: 11.2 µM
Molecule: CC[C@H](C)[C@@H]1NC(=O)[C@@H](Cc2ccc(OC)cc2)NC(=O)[C@H](CCCCCCN(O)C=O)NC(=O)[C@@H]2CCCCN2C1=O [N(OH)COH Cyclo(X-y(Me)-I-Pip), n = 6]

IC50 ([2]; Table 3, method of Example 11, read-out: IC50(μM) HDAC4): 0.24 µM
IC50 ([3]; Table 3, method of Example 11, read-out: IC50(μM) HDAC1): 0.4 µM
EC50 ([5]; Table 3, method of Example 11, 50% of the maximum activity observed in TSA): 12.9 µM
IC50 ([4]; Table 3, method of Example 11, read-out: IC50(μM) HDAC6): 441 µM
Molecule: CC[C@H](C)[C@@H]1NC(=O)[C@@H](Cc2ccc(OC)cc2)NC(=O)[C@H](CCCCCC(=O)Oc2ccccc2N)NC(=O)[C@H]2CCCN2C1=O [OAPNH, cyclo(L-Asu(OAPNH)-D-Tyr(Me)-L-Ile-D-Pro)] (cyclo([Asu](X2)[dY](Me)I[dP]))

IC50 [2, 6]: 0.09 µM
IC50 [4, 8]: 0.029 µM
Molecule: CC[C@H](C)[C@@H]1NC(=O)[C@@H](Cc2ccc(OC)cc2)NC(=O)[C@H](CCCCCN(O)C=O)NC(=O)[C@@H]2CCCN2C1=O [N(OH)COH Cyclo(X-y(Me)-I-P), n = 5] (cyclo([hLys(Nζ-OH,Nζ-For)][dY](Me)IP))

EC50 [5, 9]: > 100 µM
Molecule: CC[C@H](C)[C@@H]1NC(=O)[C@@H](Cc2ccc(OC)cc2)NC(=O)[C@H](CCCCCS(C)(=O)=O)NC(=O)[C@H]2CCCN2C1=O [SO2Me]
